Test results as given in patent US20140121178A1, “METHOD AND IMPROVED PHARMACEUTICAL COMPOSITION FOR IMPROVING THE ABSORPTION OF AN ESTER PRODRUG” (ACENDA PHARMA INC., priority 2011, published 2014).
Where a name gives a salt, the structure may show the parent alone. One block for each molecule: values may come before it.

What was measured:
[1] = Rat oral pharmacokinetics of capecitabine with or without triethyl citrate; format: in vivo, rats; settings: capecitabine in rat plasma, capecitabine 5 mg/kg, triethyl citrate 45 mg/kg where given
Description: Capecitabine is an ester prodrug, which is hydrolyzed mainly by CE2 in the GI track and CE1 in the liver and then converted by two enzymes to its active drug (5-fluorouracil) in the tumor after oral administration of capecitabine to cancer patients. […] Each rat received capecitabine (5 mg/kg) in DMSO or capecitabine (5 mg/kg) in DMSO/triethyl citrate (45 mg/kg).

[2] = Rat oral pharmacokinetics of capecitabine with or without triethyl citrate/triacetin; format: in vivo, rats; settings: capecitabine in rat plasma, capecitabine 5 mg/kg, triethyl citrate 22.5 mg/kg + triacetin 22.5 mg/kg where given
Description: In a rat study similar to the study described above, each rat received capecitabine (5 mg/kg) in DMSO or capecitabine (5 mg/kg) in DMSO/triethyl citrate (22.5 mg/kg)/triacetin (22.5 mg/kg).

in vivo = settings: male, Sprague-Dawley, rat, po, 30 mg/kg
Description: Male rats (Sprague-Dawley, 300-400 g) were surgically implanted with jugular-vein cannulas one day prior to dosing and fasted overnight (about 18-20 hours) prior to dosing. Water was available ad libitum throughout the experiment. Dosing solutions of olmesartan medoxomil (5 mg/ml) were prepared in a vehicle of DMSO/PEG400 (10/90, v/v) or DMSO/PEG400/triacetin (10/80/10, v/v). Single oral doses of the olmesartan medoxomil and olmesartan medoxomil/triacetin were each administered separately to a group of 3 male rats by gavage. Each rat received olmesartan medoxomil (5 mg/kg) in DMSO/PEG400 (10/90, v/v) or olmesartan medoxomil (5 mg/kg) in DMSO/PEG400/triacetin (10/80/10, v/v).
Blood samples (0.15 ml/rat) were collected from each rat via the jugular-vein cannula at 0, 0.25, 0.5, 1, 2, 4, 6, 8, and 24 hours after dosing. Plasma was separated from blood cells by centrifugation and frozen at −20° C. until analysis. […] A plasma concentration-time curve was plotted based on the obtained data.

[3] = Rat oral pharmacokinetics of clopidogrel bisulfate (3 mg/kg) with or without triethyl citrate/triacetin; format: in vivo, rats; settings: Sprague-Dawley, plasma
Description: Serial plasma samples were obtained from each rat and concentrations of clopidogrel and clopidogrel acid in the plasma samples were determined by LC-MS/MS.

[4] = Rat oral pharmacokinetics of olmesartan medoxomil with or without triacetin; format: in vivo, rats (Sprague-Dawley); settings: rats, oral administration, plasma LC-MS/MS
Description: Water was available ad libitum throughout the experiment. Dosing solutions of olmesartan medoxomil (5 mg/ml) were prepared in a vehicle of DMSO/PEG400 (10/90, v/v) or DMSO/PEG400/triacetin (10/80/10, v/v). […] Each rat received olmesartan medoxomil (5 mg/kg) in DMSO/PEG400 (10/90, v/v) or olmesartan medoxomil (5 mg/kg) in DMSO/PEG400/triacetin (10/80/10, v/v).

CE from porcine liver [5] = test: In vitro CE-mediated hydrolysis of clopidogrel in the presence of triacetin, triethyl citrate or both; format: in vitro ADME; settings: Table 2
CE from porcine liver [6] = test: In vitro CE-mediated hydrolysis of olmesartan medoxomil in the presence of ester excipients; format: in vitro ADME; settings: for effect on CE-mediated hydrolysis of olmesartan medoxomil (in words): compared with lecithin, Table 1; for preliminary screen of ester excipients for impeding hydrolysis of olmesartan medoxomil by CE in vitro: preliminary results
Description: Various known pharmaceutical ester excipients including triacetin, glyceryl tristearate, triethyl citrate, lecithin, tri-n-butyl citrate, acetyl triethyl citrate, and acetyl tri-n-butyl citrate were respectively tested to determine whether any of them impedes hydrolysis of olmesartan medoxomil by CE in vitro.
Test solutions (a) to (f) were prepared respectively as follows: (a) 10 μM of olmesartan medoxomil dissolved in 10% DMSO (dimethyl sulfoxide)/90% PEG400 (w/w, stability control); (b) 10 μM of olmesartan medoxomil dissolved in 10% DMSO/90% PEG400 (w/w, blank control) (c) 10 μM of olmesartan medoxomil dissolved in 10% DMSO/12% triacetin/78% PEG400 (w/w/w); (d) 10 μM of olmesartan medoxomil dissolved in 10% DMSO/12% triethyl citrate/78% PEG400 (w/w/w); (e) 10 μM of olmesartan medoxomil dissolved in 10% DMSO/12% lecithin/78% PEG400 (w/w/w); and (f) 10 μM of olmesartan medoxomil dissolved in 10% DMSO/6% triacetin/6% triethyl citrate/78% PEG400 (w/w/w/w).
CE from porcine liver (17 units/mg, available from Sigma-Aldrich) was dissolved in simulated intestinal fluid (SIF, pH=6.8) to yield a CE solution (17 units/ml). SIF was prepared by dissolving 0.6805 g of KH2PO4 and 0.0896 g of NaOH in 100 ml of de-ionized water.
Each 70 μl of olmesartan medoxomil solution (i.e., solutions (a)-(f)) was mixed with 70 μl of SIF and thereby forming mixtures (a) to (f). Each of the mixtures (a) to (f) was transferred to one well of a 96-well plate, and 60 μl each of the CE solution was added to respective wells containing mixtures (b) to (f) to initiate the reaction. In addition, sixty (60) μl of SIF without CE was added to mixture (a). This incubation mixture without CE was used as a stability control to determine the chemical stability of olmesartan medoxomil in the incubation mixture. The mixtures were incubated for 20 minutes under the air at 37° C. with constant shaking on a temperature-controlled heating block.
At the end of the 20-minute incubation, 100 μl of ice-cold acetonitrile was added to each well to terminate the reaction. Each mixture was vortexed and centrifuged at 15,000×g for 20 min at room temperature. The supernatants were tested in HPLC/UV analysis, in which the concentration of olmesartan medoxomil in each mixture was measured. Percentages (%) of olmesartan medoxomil remaining in the mixtures were calculated based on the obtained data.

[7] = mean n=3, read-out: AUC0-24 hr of capecitabine

Cmax ([1]; mean n=3): 11.8 ng/mL | Tmax ([1]; mean n=3): 0.8 h | AUC(0-t) [1, 7]: 34 ng·h/mL | Cmax ([2]; mean n=3): 8.9 ng/mL | Tmax ([2]; mean n=3): 0.4 h | AUC(0-t) [2, 7]: 15 ng·h/mL
SMILES: CCCCCOC(=O)Nc1nc(=O)n([C@@H]2O[C@H](C)[C@@H](O)[C@H]2O)cc1F [Capecitabine, capecitabine]

AUC(0-t) (in vivo): 28 ng·h/mL | Cmax (in vivo): 7.3 ng/mL | Tmax (in vivo): 4.1 h | Cmax [3]: 0.8 ng/mL | Tmax [3]: 2.9 h | AUC(0-t) ([3]; read-out: AUC0-24 hr of clopidogrel): 2 ng·h/mL
SMILES: COC(=O)[C@H](c1ccccc1Cl)N1CCc2sccc2C1 [Clopidogrel Bisulfate, clopidogrel bisulfate]

hydrolysis of olmesartan medoxomil to olmesartan after absorption [4]: completely hydrolyzed to olmesartan
SMILES: CCCc1nc(C(C)(C)O)c(C(=O)OCc2oc(=O)oc2C)n1Cc1ccc(-c2ccccc2-c2nnn[nH]2)cc1 [Olmesartan Medoxomil, olmesartan medoxomil]

SMILES: CC(=O)OCC(COC(C)=O)OC(C)=O [triacetin]
effect on CE-mediated hydrolysis of clopidogrel (in words) (CE from porcine liver [5]): retard CE-mediated hydrolysis of clopidogrel | effect on CE-mediated hydrolysis of olmesartan medoxomil (in words) (CE from porcine liver [6]): retards CE-mediated hydrolysis of olmesartan medoxomil | preliminary screen of ester excipients for impeding hydrolysis of olmesartan medoxomil by CE in vitro (CE from porcine liver [6]): promising candidates

SMILES: CCOC(=O)CC(O)(CC(=O)OCC)C(=O)OCC [triethyl citrate]
effect on CE-mediated hydrolysis of clopidogrel (in words) (CE from porcine liver [5]): retard CE-mediated hydrolysis of clopidogrel | effectiveness in impeding CE-mediated hydrolysis of clopidogrel compared with triacetin and lecithin (in words) (CE from porcine liver [5]): more effective in impeding CE-mediated hydrolysis of clopidogrel than triacetin and lecithin | effect on CE-mediated hydrolysis of olmesartan medoxomil (in words) (CE from porcine liver [6]): retards CE-mediated hydrolysis of olmesartan medoxomil | preliminary screen of ester excipients for impeding hydrolysis of olmesartan medoxomil by CE in vitro (CE from porcine liver [6]): promising candidates
